Patent US20260209193A1, “NOVEL INHIBITORS OF DNA DAMAGE RESPONSES FOR CANCER THERAPY” (The Regents of the University of California, priority 2022, published 2026)

Tests used:
Format in all cases: cell-based
[1] = test system: PC3 and SUM149PT-BRCA1mut cells; assay: CCK8 cell killing screen of JC099 analogs
Text: Structure optimization represents a critical step towards identifying candidate compounds for preclinical and clinical development and contributes to structure-function analysis. […] Cell killing potency was detected by a CCK8 assay in prostate and breast cancer cells. […]
The cell killing potency was detected by a CCK8 assay in prostate and breast cancer cells.

PARP1 = target: T1, PARP1 (Homo sapiens, UniProt P09874); assay: PARP1 trapping, chromatin fractionation (chromatin-bound fraction); details: PC3 cells
T1 construct: endogenous in cells; host or cells: PC3
Summary of the method: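 PARP1 trapping was measured as PARP1 in the chromatin-bound fraction across six lines: SUM149PT-BRCA1mut/BRCA1rev (breast), UWB1.289 BRCA1-null and BRCA1-restored (ovarian), HR-deficient C4-2B/MR (Rad51 mutant) and HR-proficient PC3 (prostate).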

ATR = target: T2, ATR (Homo sapiens, UniProt Q13535); assay: ATR-mediated signaling: phosphorylation of Rad17 Ser 645 and CHK1 Ser 345 in cells; details: for ATR inhibition potency relative to JC099 (OLA- or UV-induced phosphorylation of Rad17 and CHK1): compared to JC099
T2 construct: endogenous in cells; host or cells: PC3, C4-2B/MR, SUM149PT-BRCA1rev, UWB1.289+BRCA1, MDA-MB-231
Experimental: PARP inhibitor-resistant cells are increasingly dependent on ATR for survival, and ATR inhibition disrupts restored HR and fork protection pathways in PARP inhibitor resistant BRCA-deficient cancer cells. For ATR kinase in vitro assays, ATR was immunoprecipitated with 3 μg of anti-ATR antibody (Bethyl Laboratories, A300-137A) from 1 mg of cell lysate. […] The IC50 was determined by the enzyme profiling service of Eurofins Cerep (France). […] The phosphorylation of CHK1 at Ser 345 sites was used as a bio-marker of ATR-mediated signaling pathway. The phosphorylation of Rad17 at Ser 645, which is a substrate of ATR, was also examined.
ATR inhibition was assessed in C4-2B/MR cells. Considering ATM is a homologous protein of ATR, we also detected the effect of JC046 analogs on the phosphorylation of KAP1 at Ser 824 and CHK2 at Thr 68 sites, which were used as markers of ATM signaling pathway.

T1 sequence (P09874 whole entry, species assumed): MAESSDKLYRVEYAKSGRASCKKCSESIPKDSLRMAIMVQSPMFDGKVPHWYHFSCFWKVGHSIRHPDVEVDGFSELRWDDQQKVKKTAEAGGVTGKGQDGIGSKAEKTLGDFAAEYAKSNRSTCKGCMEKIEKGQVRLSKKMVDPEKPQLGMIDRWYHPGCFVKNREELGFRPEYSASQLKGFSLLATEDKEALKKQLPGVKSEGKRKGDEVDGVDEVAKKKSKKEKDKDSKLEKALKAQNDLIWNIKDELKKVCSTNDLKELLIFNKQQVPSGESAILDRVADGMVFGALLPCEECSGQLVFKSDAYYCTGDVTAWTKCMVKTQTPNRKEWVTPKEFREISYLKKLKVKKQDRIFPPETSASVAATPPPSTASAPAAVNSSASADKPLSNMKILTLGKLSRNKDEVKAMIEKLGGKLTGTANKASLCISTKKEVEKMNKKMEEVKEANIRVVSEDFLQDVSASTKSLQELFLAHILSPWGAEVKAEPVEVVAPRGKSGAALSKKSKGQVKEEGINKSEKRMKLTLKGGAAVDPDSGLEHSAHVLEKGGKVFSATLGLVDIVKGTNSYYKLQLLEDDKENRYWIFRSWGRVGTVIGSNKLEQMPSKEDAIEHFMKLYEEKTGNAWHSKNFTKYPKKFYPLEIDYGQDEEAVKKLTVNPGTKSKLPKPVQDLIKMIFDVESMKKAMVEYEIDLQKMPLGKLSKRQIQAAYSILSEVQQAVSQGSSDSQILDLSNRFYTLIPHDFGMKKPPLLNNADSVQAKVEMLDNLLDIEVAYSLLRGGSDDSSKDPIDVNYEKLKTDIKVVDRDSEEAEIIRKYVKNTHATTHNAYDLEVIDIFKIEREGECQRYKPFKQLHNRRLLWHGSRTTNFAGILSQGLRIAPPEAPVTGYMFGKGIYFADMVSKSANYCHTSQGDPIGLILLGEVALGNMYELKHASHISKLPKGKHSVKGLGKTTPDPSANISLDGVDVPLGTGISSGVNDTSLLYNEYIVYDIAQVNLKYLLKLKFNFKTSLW
T2 sequence (Q13535 whole entry): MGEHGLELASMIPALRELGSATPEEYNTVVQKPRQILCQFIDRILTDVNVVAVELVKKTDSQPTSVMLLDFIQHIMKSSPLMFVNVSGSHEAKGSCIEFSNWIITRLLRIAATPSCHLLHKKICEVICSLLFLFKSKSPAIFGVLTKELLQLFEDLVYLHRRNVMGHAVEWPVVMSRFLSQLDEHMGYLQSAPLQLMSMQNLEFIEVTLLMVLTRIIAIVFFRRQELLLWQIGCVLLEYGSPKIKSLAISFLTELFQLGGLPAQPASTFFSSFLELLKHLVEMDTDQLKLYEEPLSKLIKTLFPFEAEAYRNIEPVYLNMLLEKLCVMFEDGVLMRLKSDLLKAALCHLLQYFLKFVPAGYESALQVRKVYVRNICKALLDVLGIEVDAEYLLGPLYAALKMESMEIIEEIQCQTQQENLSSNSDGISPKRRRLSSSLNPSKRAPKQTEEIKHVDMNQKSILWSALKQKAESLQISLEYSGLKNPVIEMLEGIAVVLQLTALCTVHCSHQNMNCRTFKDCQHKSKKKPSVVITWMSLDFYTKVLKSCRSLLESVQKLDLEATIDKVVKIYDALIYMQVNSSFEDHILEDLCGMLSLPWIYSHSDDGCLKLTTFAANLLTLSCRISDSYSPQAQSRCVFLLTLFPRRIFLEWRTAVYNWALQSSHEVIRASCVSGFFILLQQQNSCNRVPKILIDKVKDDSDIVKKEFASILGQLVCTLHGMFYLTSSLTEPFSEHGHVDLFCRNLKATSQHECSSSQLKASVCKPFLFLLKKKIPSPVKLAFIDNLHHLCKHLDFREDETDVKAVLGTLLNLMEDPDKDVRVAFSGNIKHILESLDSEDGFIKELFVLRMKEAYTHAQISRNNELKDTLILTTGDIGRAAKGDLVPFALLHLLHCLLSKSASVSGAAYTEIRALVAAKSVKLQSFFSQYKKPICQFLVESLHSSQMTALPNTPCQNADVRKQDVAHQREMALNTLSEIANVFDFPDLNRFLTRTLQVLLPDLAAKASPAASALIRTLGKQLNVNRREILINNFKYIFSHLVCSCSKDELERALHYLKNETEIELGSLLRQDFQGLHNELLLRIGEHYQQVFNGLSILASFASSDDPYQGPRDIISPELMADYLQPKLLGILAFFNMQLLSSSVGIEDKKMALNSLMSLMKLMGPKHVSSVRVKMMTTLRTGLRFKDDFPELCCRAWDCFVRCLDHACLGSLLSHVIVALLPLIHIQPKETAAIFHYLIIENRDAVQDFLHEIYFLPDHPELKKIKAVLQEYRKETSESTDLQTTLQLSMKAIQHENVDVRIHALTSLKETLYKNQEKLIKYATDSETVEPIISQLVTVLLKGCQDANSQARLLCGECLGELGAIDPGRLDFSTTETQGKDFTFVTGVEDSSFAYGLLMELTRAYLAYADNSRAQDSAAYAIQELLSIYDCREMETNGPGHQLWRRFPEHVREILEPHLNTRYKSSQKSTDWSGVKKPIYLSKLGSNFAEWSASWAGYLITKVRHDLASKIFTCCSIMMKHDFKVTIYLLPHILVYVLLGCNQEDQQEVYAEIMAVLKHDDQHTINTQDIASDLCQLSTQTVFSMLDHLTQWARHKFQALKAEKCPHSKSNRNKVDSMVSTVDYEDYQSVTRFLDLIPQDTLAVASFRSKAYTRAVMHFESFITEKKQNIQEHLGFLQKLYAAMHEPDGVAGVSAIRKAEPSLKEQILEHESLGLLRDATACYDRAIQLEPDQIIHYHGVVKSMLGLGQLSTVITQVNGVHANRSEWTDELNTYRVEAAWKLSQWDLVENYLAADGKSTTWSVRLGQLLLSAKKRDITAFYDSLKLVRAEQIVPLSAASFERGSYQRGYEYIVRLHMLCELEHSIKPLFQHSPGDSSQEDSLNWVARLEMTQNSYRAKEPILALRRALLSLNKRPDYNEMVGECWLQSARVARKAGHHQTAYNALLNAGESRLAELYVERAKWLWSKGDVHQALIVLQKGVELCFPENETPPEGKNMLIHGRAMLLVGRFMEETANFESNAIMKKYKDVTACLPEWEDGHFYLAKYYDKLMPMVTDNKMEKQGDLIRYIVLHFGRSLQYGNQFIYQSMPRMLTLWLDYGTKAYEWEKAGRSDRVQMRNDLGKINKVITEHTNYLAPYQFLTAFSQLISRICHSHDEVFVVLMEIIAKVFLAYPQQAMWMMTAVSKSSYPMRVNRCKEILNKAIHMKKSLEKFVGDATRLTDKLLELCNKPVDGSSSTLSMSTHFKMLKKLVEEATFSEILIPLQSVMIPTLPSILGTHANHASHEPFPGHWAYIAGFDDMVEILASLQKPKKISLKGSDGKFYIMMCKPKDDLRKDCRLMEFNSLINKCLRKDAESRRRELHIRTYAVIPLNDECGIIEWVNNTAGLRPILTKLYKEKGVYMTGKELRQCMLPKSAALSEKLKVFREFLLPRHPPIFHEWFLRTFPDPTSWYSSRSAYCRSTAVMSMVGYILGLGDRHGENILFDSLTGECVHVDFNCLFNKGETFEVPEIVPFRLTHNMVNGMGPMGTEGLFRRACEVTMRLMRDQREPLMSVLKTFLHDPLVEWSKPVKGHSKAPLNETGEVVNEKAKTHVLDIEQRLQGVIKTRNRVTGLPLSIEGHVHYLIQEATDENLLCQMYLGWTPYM
T2 sequence (Q8WXE1 whole entry partner): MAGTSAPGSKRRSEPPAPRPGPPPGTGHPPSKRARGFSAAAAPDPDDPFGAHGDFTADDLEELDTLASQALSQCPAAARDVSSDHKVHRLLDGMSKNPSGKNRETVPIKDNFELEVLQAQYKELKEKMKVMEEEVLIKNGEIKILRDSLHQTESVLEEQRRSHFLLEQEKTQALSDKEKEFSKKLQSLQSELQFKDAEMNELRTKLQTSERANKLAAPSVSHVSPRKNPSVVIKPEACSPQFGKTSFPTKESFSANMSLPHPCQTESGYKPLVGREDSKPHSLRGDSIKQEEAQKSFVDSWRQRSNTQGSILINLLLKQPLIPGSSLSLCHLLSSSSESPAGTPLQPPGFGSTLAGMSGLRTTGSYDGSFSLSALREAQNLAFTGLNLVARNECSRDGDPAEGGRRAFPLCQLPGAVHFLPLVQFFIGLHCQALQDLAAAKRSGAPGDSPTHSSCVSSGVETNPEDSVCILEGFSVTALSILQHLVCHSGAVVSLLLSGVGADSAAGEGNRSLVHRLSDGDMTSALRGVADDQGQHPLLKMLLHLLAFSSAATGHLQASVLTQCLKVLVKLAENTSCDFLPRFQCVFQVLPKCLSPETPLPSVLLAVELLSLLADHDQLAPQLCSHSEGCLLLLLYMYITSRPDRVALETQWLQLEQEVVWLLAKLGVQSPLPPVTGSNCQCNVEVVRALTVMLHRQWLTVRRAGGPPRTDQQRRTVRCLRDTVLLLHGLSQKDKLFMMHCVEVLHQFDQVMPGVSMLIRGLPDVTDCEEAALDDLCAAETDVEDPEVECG

SMILES | PARP1 trapped on DNA lesions (PARP1; 0.3 μM) | PARP1-trapping potency relative to JC099 (PARP1 in the chromatin-bound fraction) (PARP1) | ATR inhibition potency relative to JC099 (OLA- or UV-induced phosphorylation of Rad17 and CHK1) (ATR) | cell killing potency relative to JC099 [1] | Olaparib induced phosphorylation of Rad17 at Ser 645 and CHK1 at Ser 345 (ATR; 1 μM and 2 μM, PC3 cells)
CN1CCN(c2ccc(C(=O)NC3C/C(=C\c4ccc(F)c(F)c4)C(=O)/C(=C/c4ccc(F)c(F)c4)C3)cc2)CC1 (centres unmarked) [JCS071, N-(3,5-Bis((E)-3,4-difluorobenzylidene)-4-oxocyclohexyl)-4-(4-methylpiperazin-1-yl)benzamide] | – | – | – | higher cell killing potency than JC099 | –
O=C1/C(=C/c2ccc(F)c(F)c2)CC(NC(=O)c2ccc3c(ccn3CCN3CCCC3)c2)C/C1=C\c1ccc(F)c(F)c1 (centres unmarked) [JCS075, N-(3,5-bis((E)-3,4-difluorobenzylidene)-4-oxocyclohexyl)-1-(2-(pyrrolidin-1-yl)ethyl)-1H-indole-5-carboxamide] | – | increased the accumulation of PARP1 in the chromatin-bound fraction than JC099 | – | – | decreased the phosphorylation of Rad17 and CHK1
CCN(CCOC)CCOc1ccc(C(=O)NC2C/C(=C\c3ccc(F)c(F)c3)C(=O)/C(=C/c3ccc(F)c(F)c3)C2)cc1 (centres unmarked) [JCS109, N-(3,5-Bis((E)-3,4-difluorobenzylidene)-4-oxocyclohexyl)-4-(2-(ethyl(2-methoxyethyl)amino)eth-oxy)benzamide] | – | higher potency in PARP1-trapping | greater ATR inhibition potential | – | –
COCCN(CCOc1ccc(C(=O)NC2C/C(=C\c3ccc(F)c(F)c3)C(=O)/C(=C/c3ccc(F)c(F)c3)C2)cc1)CC1CCCO1 (centres unmarked) [JCS110, N-(3,5-Bis((E)-3,4-difluorobenzylidene)-4-oxocyclohexyl)-4-(2-((2-methoxyethyl)((tetrahydrofuran-2-yl)methyl)amino)ethoxy)benzamide] | – | – | greater ATR inhibition potential | moderate potency of cell killing, whereas less than JC099 | –
CCN(CC)CCOc1nncc2cc(C(=O)NC3C/C(=C\c4ccc(F)c(F)c4)C(=O)/C(=C/c4ccc(F)c(F)c4)C3)ccc12 (centres unmarked) [JCS133, N-(3,5-Bis((E)-3,4-difluorobenzylidene)-4-oxocyclohexyl)-1-(2-(diethylamino)ethoxy)phthalazine-6-carboxamide] | – | higher potency in PARP1-trapping | their potencies were close to JC099 | – | –
COCCN(CCOC)CCOc1ccc(C(=O)NC2C/C(=C\c3cc(F)c(F)c(F)c3)C(=O)/C(=C/c3cc(F)c(F)c(F)c3)C2)cc1 (centres unmarked) [JCS143, 4-(2-(Bis(2-methoxyethyl)amino)ethoxy)-N-(4-oxo-3,5-bis((E)-3,4,5-trifluorobenzylidene)cyclo-hexyl)benzamide] | – | – | less ATR inhibition potencies | moderate potency of cell killing, whereas less than JC099 | –
CCN(CC)CCOc1ccc(C(=O)NC2C/C(=C\c3ccc(F)cc3)C(=O)/C(=C/c3ccc(F)cc3)C2)cc1 (centres unmarked) [JCS149, N-(3,5-Bis((E)-4-fluorobenzylidene)-4-oxocyclohexyl)-4-(2-(diethylamino)ethoxy)benzamide] | – | their potencies were less than JC099 | less ATR inhibition potencies | – | –
CCN(CC)CCOc1ccc(C(=O)NC2C/C(=C\c3ccc(F)c(F)c3F)C(=O)/C(=C/c3ccc(F)c(F)c3F)C2)cc1 (centres unmarked) [JCS159, 4-(2-(Diethylamino)ethoxy)-N-(4-oxo-3,5-bis((E)-2,3,4-trifluorobenzylidene)cyclohexyl)benzamide] | – | higher potency in PARP1-trapping | less ATR inhibition potencies | – | –
CN1CCC[C@H]1CNc1ncc(C(=O)NC2C/C(=C\c3ccc(F)c(F)c3)C(=O)/C(=C/c3ccc(F)c(F)c3)C2)cn1 (stereo partly drawn) [JCS161, N-(3,5-Bis((E)-3,4-difluorobenzylidene)-4-oxocyclohexyl)-2-((((S)-1-methylpyrrolidin-2-yl)methyl)-amino)pyrimidine-5-carboxamide] | – | – | – | higher cell killing potency than JC099 | –
CCCN(CCC)CCOc1ccc(C(=O)NC2C/C(=C\c3ccc(F)c(F)c3)C(=O)/C(=C/c3ccc(F)c(F)c3)C2)cc1 (centres unmarked) [JCSO11] | – | – | – | higher cell killing potency than JC099 | –

The next lines start with results.

PARP1 trapped on DNA lesions (PARP1; 0.3 μM) | PARP1-trapping potency relative to JC099 (PARP1 in the chromatin-bound fraction) (PARP1) | ATR inhibition potency relative to JC099 (OLA- or UV-induced phosphorylation of Rad17 and CHK1) (ATR) | SMILES | cell killing potency relative to JC099 [1] | Olaparib induced phosphorylation of Rad17 at Ser 645 and CHK1 at Ser 345 (ATR; 1 μM and 2 μM, PC3 cells)
trapped | – | – | O=C(CN1CCCC1)Nc1ccc(C(=O)NC2C/C(=C\c3ccc(F)c(F)c3)C(=O)/C(=C/c3ccc(F)c(F)c3)C2)cc1 (centres unmarked) [JCS046, N-(3,5-bis((E)-3,4-difluorobenzylidene)-4-oxocyclohexyl)-4-(2-(pyrrolidin-1-yl)acetamido)benzamide] | higher cell killing potency than JC099 | –
– | – | greater ATR inhibition potential | O=C1/C(=C/c2ccc(F)c(F)c2)CC(NC(=O)c2ccc(OCCN3CCC(N4CCCC4)CC3)cc2)C/C1=C\c1ccc(F)c(F)c1 (centres unmarked) [JCS080, N-(3,5-bis((E)-3,4-difluorobenzylidene)-4-oxocyclohexyl)-4-(2-(4-(pyrrolidin-1-yl)piperidin-1-yl)ethoxy)benzamide] | higher cell killing potency than JC099 | –
– | higher potency in PARP1-trapping | – | N#Cc1cc(NCCN2CCCC2)ccc1C(=O)NC1C/C(=C\c2ccc(F)c(F)c2)C(=O)/C(=C/c2ccc(F)c(F)c2)C1 (centres unmarked) [JCS091, N-(3,5-Bis((E)-3,4-difluorobenzylidene)-4-oxocyclohexyl)-2-cyano-4-((2-(pyrrolidin-1-yl)ethyl)ami-no)benzamide] | higher cell killing potency than JC099 | –
– | higher potency in PARP1-trapping | their potencies were close to JC099 | O=C1/C(=C/c2ccc(F)c(F)c2)CC(NC(=O)c2cnc(NCCN3CCCC3)cc2C(F)(F)F)C/C1=C\c1ccc(F)c(F)c1 (centres unmarked) [JCS094, N-(3,5-Bis((E)-3,4-difluorobenzylidene)-4-oxocyclohexyl)-6-((2-(pyrrolidin-1-yl)ethyl)amino)-4-(trifluoromethyl)nicotinamide] | – | –
– | – | their potencies were close to JC099 | CCN(CC)CCOc1ccc(C(=O)NC2C/C(=C\c3ccc(F)c(F)c3)C(=O)/C(=C/c3ccc(F)c(F)c3)C2)cc1OC (centres unmarked) [JCS111, N-(3,5-Bis((E)-3,4-difluorobenzylidene)-4-oxocyclohexyl)-4-(2-(diethylamino)ethoxy)-3-methoxy-benzamide] | moderate potency of cell killing, whereas less than JC099 | –
– | – | greater ATR inhibition potential | CCN1CCC[C@H]1CNc1ccc(C(=O)NC2C/C(=C\c3cc(F)c(F)c(F)c3)C(=O)/C(=C/c3cc(F)c(F)c(F)c3)C2)cc1 (stereo partly drawn) [JCS142, 4-((((S)-1-Ethylpyrrolidin-2-yl)methyl)amino)-N-(4-oxo-3,5-bis((E)-3,4,5-trifluorobenzylidene)-cyclohexyl)benzamide] | higher cell killing potency than JC099 | –
– | their potencies were less than JC099 | their potencies were close to JC099 | O=C1/C(=C/c2ccc(F)c(F)c2)CC(NC(=O)c2ccc(OCCNN3CCCCC3)cc2)C/C1=C\c1ccc(F)c(F)c1 (centres unmarked) [JCS150, N-(3,5-Bis((E)-3,4-difluorobenzylidene)-4-oxocyclohexyl)-4-(2-(piperidin-1-ylamino)ethoxy)-benzamide] | – | –
– | their potencies were less than JC099 | their potencies were close to JC099 | O=C1/C(=C/c2ccc(F)c(F)c2)CC(NC(=O)c2ccc(OCCN3CC4(COC4)C3)cc2)C/C1=C\c1ccc(F)c(F)c1 (centres unmarked) [JCS151, 4-(2-(2-Oxa-6-azaspiro[3.3]heptan-6-yl)ethoxy)-N-(3,5-bis((E)-3,4-difluorobenzylidene)-4-oxocyclohexyl)benzamide] | – | –
– | their potencies were less than JC099 | greater ATR inhibition potential | CN1CCC[C@H]1CNc1ccc(C(=O)NC2C/C(=C\c3ccc(F)c(F)c3)C(=O)/C(=C/c3ccc(F)c(F)c3)C2)cc1 (stereo partly drawn) [JCS160, N-(3,5-Bis((E)-3,4-difluorobenzylidene)-4-oxocyclohexyl)-4-((((S)-1-methylpyrrolidin-2-yl)methyl)-amino)benzamide] | – | –
